Read-outs that look alike come from different tables or passages of the source.
Test system: cancer cell lines from the cancer cell line encyclopedia (CCLE)
Assay: Cell line profiling (CLiP) proliferation experiment
Assay type: cell-based
Details: Homo sapiens; for IC50: read-out: Crossing Point; for EC50: read-out: Inflection Point
Procedure: Compound profiling experiment and data analysis was performed as previously described. Data was imported and plotted using the Tibco Spotfire DXP application. Lines were categorized as sensitive, intermediate and refractory as follows: Amax<-40 & Inflection Point <2 ~ Sensitive, Amax>-20 & Inflection Point >10 ~ Refractory, all else were called Intermediate. Cancer Cell line HG-U133 Plus 2 data was processed and normalized as described. […] Five sets of refractory cell lines were generated from the pool of refractory cell lines trying to match the lineage composition of the set of sensitive cell lines. The limma package was used as previously described to perform the statistical comparison.

[1] = SNU1, cell line SNU-1, stomach, undifferentiated_adenocarcinoma
[2] = SNU-16, cell line SNU-16, stomach, undifferentiated_adenocarcinoma
[3] = SNU-475, cell line SNU-475, liver, hepatocellular_carcinoma
[4] = SNU-C1, SNU-C1 (large_intestine, adenocarcinoma)
[5] = ST486, ST486 (haematopoietic_and_lymphoid_tissue, Burkitt_lymphoma)
[6] = SU-DHL-4, SU-DHL-4 (haematopoietic_and_lymphoid_tissue, diffuse_large_B_cell_lymphoma)
[7] = SU-DHL-5, SU-DHL-5 (haematopoietic_and_lymphoid_tissue, diffuse_large_B_cell_lymphoma)
[8] = SU-DHL-8, SU-DHL-8 (haematopoietic_and_lymphoid_tissue, diffuse_large_B_cell_lymphoma)
[9] = SW48, SW48 (large_intestine, adenocarcinoma)
[10] = SW480, SW480 (large_intestine, adenocarcinoma)
[11] = SW1088, SW 1088 (central_nervous_system, NS)
[12] = SW1417, SW1417 (large_intestine, adenocarcinoma)
[13] = SW-620, SW620 (large_intestine, adenocarcinoma)
[14] = TE-11, TE-11 (oesophagus, squamous_cell_carcinoma)
[15] = TE-15, TE-15 (oesophagus, squamous_cell_carcinoma)
[16] = TOV112D, TOV-112D (ovary, endometrioid_carcinoma)
[17] = WSUDLCL2, WSU-DLCL2 cell line, haematopoietic_and_lymphoid_tissue, diffuse_large_B_cell_lymphoma
[18] = ZR-75-1, ZR-75-1 cell line, breast, ductal_carcinoma

CC(C)[C@@]12C[C@@H](O)[C@@](C)(O1)[C@@H]1CC[C@@H](C)[C@H]1[C@@H]2OC(=O)/C=C/c1ccccc1 [Englerin B]
13.7 µM: IC50 (TE-11, TE-11 (oesophagus)) | IC50 [14]
19.8 µM: IC50 (UACC-257, UACC-257 (skin, NS))
21.5 µM: EC50 [16]
11.9 µM: EC50 [13]
13.2 µM: EC50 [8]
17.9 µM: IC50 (THP-1, THP-1 (haematopoietic_and_lymphoid_tissue, acute_myeloid_leukaemia))
14.6 µM: IC50 [8] | IC50 (U-937, U-937 (haematopoietic_and_lymphoid_tissue, malignant_histiocytosis))
8.92 µM: EC50 [10]
25.6 µM: IC50 (UMUC3, UM-UC-3 cell line, urinary_tract, transitional_cell_carcinoma)
26.1 µM: IC50 [12] | EC50 [12]
26 µM: IC50 [15] | EC50 [15]
19.1 µM: IC50 (SNU-449, SNU-449 (liver)) | IC50 (SNU-449, cell line SNU-449, liver, hepatocellular_carcinoma)
18.5 µM: IC50 (SU-DHL10, SU-DHL-10 (haematopoietic_and_lymphoid_tissue, diffuse_large_B_cell_lymphoma))
12.9 µM: EC50 [3] | EC50 [18]
21.8 µM: IC50 (TOV21G, TOV-21G (ovary, clear_cell_carcinoma))
21.1 µM: IC50 [18]
2.41 µM: EC50 [11]
18.9 µM: IC50 (VM-CUB-1, VM-CUB1 cell line, urinary_tract, transitional_cell_carcinoma)
> 30 µM: IC50 [1] | IC50 (SNU-182, SNU-182 (liver)) | IC50 (SNU-182, cell line SNU-182, liver, hepatocellular_carcinoma) | IC50 (SNU-475, cell line SNU-475 (liver, hepatocellular_carcinoma)) | IC50 [3] | IC50 [4] | IC50 (SNU-C1, SNU-C1 cells) | IC50 (SW480, SW480 (large_intestine)) | IC50 [10] | IC50 (SW837, SW837 (large_intestine)) | IC50 (SW837, SW837 (large_intestine, adenocarcinoma)) | IC50 (SW948, SW948 (large_intestine)) | IC50 (SW948, SW948 (large_intestine, adenocarcinoma)) | IC50 (SW1088, SW 1088 (central_nervous_system)) | IC50 [11] | IC50 (SW1353, SW 1353 (bone)) | IC50 (SW1353, SW 1353 (bone, NS)) | IC50 (SW1573, SW 1573 (lung)) | IC50 (SW1573, SW 1573 (lung, squamous_cell_carcinoma)) | IC50 (SW1783, SW 1783 (central_nervous_system, astrocytoma_Grade_III)) | IC50 (SW1783, cell line SW 1783 (central_nervous_system, astrocytoma_Grade_III)) | IC50 (SW1990, SW 1990 (pancreas)) | IC50 (SW1990, SW 1990 (pancreas, ductal_carcinoma)) | IC50 (T47D, T-47D (breast)) | IC50 (T47D, T-47D (breast, ductal_carcinoma)) | IC50 (T98G, T98G (central_nervous_system)) | IC50 (T98G, T98G (central_nervous_system, astrocytoma_Grade_IV)) | IC50 (TE-10, TE-10 (oesophagus)) | IC50 (TE-10, TE-10 (oesophagus, squamous_cell_carcinoma)) | IC50 (U-118-MG, U-118 MG (central_nervous_system, astrocytoma)) | IC50 (U-118-MG, cell line U-118 MG) | IC50 (U-251, U-251 MG (central_nervous_system)) | IC50 (U-251, U-251 MG (central_nervous_system, astrocytoma)) | IC50 (UACC-62, UACC-62 (skin)) | IC50 (UACC-62, UACC-62 cell line, skin, NS) | IC50 (WM 266-4, WM-266-4 (skin)) | IC50 (WM 266-4, WM-266-4 cell line, skin, NS) | IC50 (WM793, WM-793 (skin)) | IC50 (WM793, WM-793 cell line, skin, NS) | IC50 (WM-115, WM-115 (skin)) | IC50 (WM-115, WM-115 cell line, skin, NS) | IC50 (YAPC, YAPC (pancreas)) | IC50 (YAPC, YAPC cell line, pancreas, NS) | IC50 (YKG-1, YKG1 (central_nervous_system)) | IC50 (YKG-1, YKG1 cell line, central_nervous_system, astrocytoma_Grade_IV) | IC50 (ZR-75-30, ZR-75-30 (breast))
15.2 µM: EC50 (SW1353, SW 1353 (bone, NS)) | IC50 (Z-138, Z-138 (haematopoietic_and_lymphoid_tissue)) | IC50 (Z-138, Z-138 cell line, haematopoietic_and_lymphoid_tissue, mantle_cell_lymphoma)
14.8 µM: EC50 [4] | EC50 (SNU-C1, SNU-C1 cells)
29 µM: IC50 [9] | EC50 [9]
12.1 µM: EC50 [1]
13.5 µM: EC50 (SNU-16, SNU-16 cells) | EC50 [2] | IC50 [5] | EC50 [5] | EC50 [14]
14.7 µM: IC50 [7] | EC50 [7]
14.1 µM: IC50 [2]
12.8 µM: IC50 [13]
14.2 µM: IC50 [17] | EC50 [17]
20.5 µM: IC50 [6] | EC50 [6]
19.5 µM: IC50 [16]

— article PMC4476799, “Englerin A Agonizes the TRPC4/C5 Cation Channels to Inhibit Tumor Cell Line Proliferation” (PLoS ONE, 2015)
